Reference: patent US9296725B2, “Heterocyclyl pyrimidine analogues as TYK2 inhibitors” (Cellzome Limited, priority 2012, dated 2016)
pIC50: −log10 of the molar value.

Key:
JAK2 = target: T1, JAK2 (Homo sapiens, UniProt O60674); assay: Kinobeads assay, JAK2 (competition binding in mixed Molt4/Ramos cell lysate, dot blot detection); details: read-out: JAK2 Band (Kinobeads assay potency, IC50)
T1 construct: endogenous in cells; host or cells: Molt4 (ATCC CRL-1582) and Ramos (ATCC CRL-1596), mixed lysate 1:2
Procedure, shortened: (§1)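 JAK2 and TYK2 retained on Kinobeads (immobilized aminopyrido-pyrimidine ligand) from 1:2 Molt4:Ramos lysate (10 mg/mL) were quantified by antibody dot blot (Odyssey infrared) after 3 h cold incubation with compound. Nine-step 1:3 dilution series; IC50 calculated from curves.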

TYK2 = target: T2, TYK2 (Homo sapiens, UniProt P29597); assay: Kinobeads assay, TYK2 (competition binding in mixed Molt4/Ramos cell lysate, dot blot detection); details: Kinobeads assay, Molt4/Ramos lysate; read-out: TYK2 Band (Kinobeads assay potency, IC50)
T2 construct: endogenous in cells; host or cells: Molt4 (ATCC CRL-1582) and Ramos (ATCC CRL-1596), mixed lysate 1:2
Procedure, shortened: as §1

T2 sequence (P29597 whole entry): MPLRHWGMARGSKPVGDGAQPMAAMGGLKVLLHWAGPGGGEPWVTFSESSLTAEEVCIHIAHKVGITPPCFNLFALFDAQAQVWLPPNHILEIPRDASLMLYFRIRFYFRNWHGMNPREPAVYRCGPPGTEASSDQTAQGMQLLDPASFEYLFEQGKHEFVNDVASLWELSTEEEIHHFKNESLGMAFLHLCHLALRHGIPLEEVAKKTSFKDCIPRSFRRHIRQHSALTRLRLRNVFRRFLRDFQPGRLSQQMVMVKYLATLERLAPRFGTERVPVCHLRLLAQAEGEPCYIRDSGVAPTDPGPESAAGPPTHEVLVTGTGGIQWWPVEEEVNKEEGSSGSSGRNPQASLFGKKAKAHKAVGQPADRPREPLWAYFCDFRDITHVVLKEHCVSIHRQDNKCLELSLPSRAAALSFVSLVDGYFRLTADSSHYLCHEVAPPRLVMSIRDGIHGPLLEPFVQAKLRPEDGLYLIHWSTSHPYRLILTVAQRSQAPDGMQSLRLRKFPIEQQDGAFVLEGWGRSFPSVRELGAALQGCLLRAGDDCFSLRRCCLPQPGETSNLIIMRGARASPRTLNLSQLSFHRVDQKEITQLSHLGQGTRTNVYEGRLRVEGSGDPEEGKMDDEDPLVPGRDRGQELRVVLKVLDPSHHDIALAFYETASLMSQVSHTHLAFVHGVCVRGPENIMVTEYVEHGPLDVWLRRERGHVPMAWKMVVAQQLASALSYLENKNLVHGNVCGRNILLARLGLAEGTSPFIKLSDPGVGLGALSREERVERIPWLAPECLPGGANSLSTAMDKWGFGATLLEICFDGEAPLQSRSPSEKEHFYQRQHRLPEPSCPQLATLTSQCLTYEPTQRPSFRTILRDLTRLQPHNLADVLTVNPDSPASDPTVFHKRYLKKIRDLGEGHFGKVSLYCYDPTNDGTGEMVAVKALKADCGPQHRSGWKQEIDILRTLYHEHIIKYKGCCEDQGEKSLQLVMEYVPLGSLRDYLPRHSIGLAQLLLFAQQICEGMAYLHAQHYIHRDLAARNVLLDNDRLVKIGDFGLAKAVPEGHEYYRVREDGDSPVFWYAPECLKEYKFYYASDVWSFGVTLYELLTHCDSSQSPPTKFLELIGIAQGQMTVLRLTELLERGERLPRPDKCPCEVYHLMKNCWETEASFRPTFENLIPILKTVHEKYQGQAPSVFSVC
T1 sequence (O60674 whole entry): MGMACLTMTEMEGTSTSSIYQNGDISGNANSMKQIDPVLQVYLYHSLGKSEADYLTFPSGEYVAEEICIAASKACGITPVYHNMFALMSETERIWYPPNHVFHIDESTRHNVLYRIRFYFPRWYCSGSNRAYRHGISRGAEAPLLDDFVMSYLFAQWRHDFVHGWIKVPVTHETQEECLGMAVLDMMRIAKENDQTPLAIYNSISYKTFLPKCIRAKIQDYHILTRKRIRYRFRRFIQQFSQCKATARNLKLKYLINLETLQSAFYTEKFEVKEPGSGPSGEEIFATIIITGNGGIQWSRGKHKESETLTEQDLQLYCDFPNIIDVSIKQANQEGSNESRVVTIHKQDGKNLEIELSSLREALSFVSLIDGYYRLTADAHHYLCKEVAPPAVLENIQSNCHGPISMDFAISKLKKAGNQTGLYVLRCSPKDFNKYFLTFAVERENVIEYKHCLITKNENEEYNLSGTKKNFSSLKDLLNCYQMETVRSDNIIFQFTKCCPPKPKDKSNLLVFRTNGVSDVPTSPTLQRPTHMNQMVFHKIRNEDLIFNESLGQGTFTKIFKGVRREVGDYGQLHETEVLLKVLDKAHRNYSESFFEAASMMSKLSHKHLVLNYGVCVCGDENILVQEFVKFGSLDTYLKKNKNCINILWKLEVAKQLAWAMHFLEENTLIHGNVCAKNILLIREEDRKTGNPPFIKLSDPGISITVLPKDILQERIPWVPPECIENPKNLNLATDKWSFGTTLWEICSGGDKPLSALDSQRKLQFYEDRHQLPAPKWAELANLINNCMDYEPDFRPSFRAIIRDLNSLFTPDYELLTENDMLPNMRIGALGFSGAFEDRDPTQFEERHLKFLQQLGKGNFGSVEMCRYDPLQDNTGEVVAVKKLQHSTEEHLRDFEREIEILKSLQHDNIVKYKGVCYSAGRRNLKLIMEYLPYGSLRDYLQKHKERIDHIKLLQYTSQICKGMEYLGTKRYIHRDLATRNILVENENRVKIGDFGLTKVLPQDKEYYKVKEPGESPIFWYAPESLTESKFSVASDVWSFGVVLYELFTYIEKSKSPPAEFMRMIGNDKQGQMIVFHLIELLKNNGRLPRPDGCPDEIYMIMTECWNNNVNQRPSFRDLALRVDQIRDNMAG

Compound	pIC50 (JAK2)	pIC50 (TYK2)
CNS(=O)(=O)c1ccccc1CNc1nc(Nc2cnn(CCO)c2)ncc1Cl [Example I-472]	6.00 to 7.00	7.00 to 8.00
CNS(=O)(=O)c1ccccc1CNc1nc(Nc2cnn(C)c2)ncc1Cl [Example I-473]	6.00 to 7.00	6.00 to 7.00
CN(C)S(=O)(=O)c1ccccc1CNc1nc(Nc2cnn(C)c2)ncc1Cl [Example I-474]	6.00 to 7.00	6.00 to 7.00
CS(=O)(=O)c1ccccc1CNc1nc(Nc2cnn(CC(F)(F)F)c2)ncc1Cl [Example I-475]	< 5.00	5.00 to 6.00
CS(=O)(=O)c1ccccc1CNc1nc(Nc2cnn(CC3CC3)c2)ncc1Cl [Example I-476]	5.00 to 6.00	5.00 to 6.00
CS(=O)(=O)c1ccccc1CNc1nc(Nc2cnn(CC(F)F)c2)ncc1F [Example I-477]	5.00 to 6.00	5.00 to 6.00
Cc1cnc(Nc2cnn(CC(F)F)c2)nc1NCc1ccccc1S(C)(=O)=O [Example I-478]	< 5.00	5.00 to 6.00
COc1ccc(S(C)(=O)=O)cc1CNc1nc(Nc2cnn(CC(F)F)c2)ncc1F [Example I-480]	5.00 to 6.00	6.00 to 7.00
Fc1cccc(F)c1CNc1nc(Nc2cnn(Cc3ncco3)c2)ncc1Cl [Example I-481]	5.00 to 6.00	6.00 to 7.00
Cn1cc(Cn2cc(Nc3ncc(Cl)c(NCc4c(F)cccc4F)n3)cn2)cn1 [Example I-482]	5.00 to 6.00	6.00 to 7.00
Cc1noc(Cn2cc(Nc3ncc(Cl)c(NCc4c(F)cccc4F)n3)cn2)n1 [Example I-483]	5.00 to 6.00	6.00 to 7.00

Other lines, results leading:

pIC50 (JAK2)	pIC50 (TYK2)	Compound
6.00 to 7.00	6.00 to 7.00	Cc1scnc1Cn1cc(Nc2ncc(Cl)c(NCc3c(F)cccc3F)n2)cn1 [Example I-484]
6.00 to 7.00	6.00 to 7.00	CS(=O)(=O)c1ccc(F)cc1CNc1nc(Nc2cn[nH]c2)ncc1F [Example I-486]
6.00 to 7.00	6.00 to 7.00	Cn1cc(Nc2ncc(F)c(NCc3cc(F)ccc3S(C)(=O)=O)n2)cn1 [Example I-487]
6.00 to 7.00	7.00 to 8.00	CS(=O)(=O)c1ccc(F)cc1CNc1nc(Nc2cnn(CCO)c2)ncc1F [Example I-488]
6.00 to 7.00	7.00 to 8.00	CS(=O)(=O)c1ccc(F)cc1CNc1nc(Nc2cnn(CC(N)=O)c2)ncc1F [Example I-489]
5.00 to 6.00	7.00 to 8.00	C[C@H](CO)NC(=O)Cn1cc(Nc2nccc(NCc3c(F)cccc3F)n2)cn1 [Example I-490]
